One test deals with T1, hM3 receptor (Homo sapiens, UniProt P20309).
T1 construct: expressed in transfected cells; host or cells: CHO cells (Levey et al., 1991)
As to the kind of experiment: Calcium mobilization assay, CHO cells stably expressing hM3. It is filed as cell-based. The text has this: (§1) Chinese hamster ovary (CHO-K1) cells stably expressing rat (r)M1 were purchased from the American Type Culture Collection and cultured according to their indicated protocol. CHO cells stably expressing human (h)M2, hM3, and hM5 were described previously (Levey et al., 1991); hM1 and hM4 cDNAs were purchased from Missouri S&T cDNA Resource; rM4 cDNA was provided by T. I. Bonner (National Institutes of Health, Bethesda, Md.). hM1, hM4, and rM4 cDNAs were used to stably transfect CHO-K1 cells purchased from the American Type Culture Collection using Lipofectamine2000. […]
(§2) For low throughput measurement of agonist-evoked increases in intracellular calcium, CHO-K1 cells stably expressing muscarinic receptors were plated in 100 μL of growth medium at 5×10^4 (rM1, hM3, and hM5) or 6×10^4 cells per well (rM1 Y381A, hM2, and rM4) in Costar 96-well black-walled, tissue culture (TC)-treated, clear-bottom plates (Fisher). […] For calcium fluorescence measurements, CRCs of compounds (50 μl, 2×) were added 19 s after the beginning of data collection via a Flexstation II (Molecular Devices, Sunnyvale, Calif.). Fluorescence imaging continued for a total of 130 s acquisition time using an excitation wavelength of 488 nm, an emission wavelength of 525 nm, and a cutoff wavelength of 515 nm. […]
For orientation: Calcium assays in cells follow changes in intracellular calcium, usually with a dye or a luminescent sensor.

The next test has as its target T2, hM5 receptor (Homo sapiens, UniProt P08912).
T2 construct: expressed in transfected cells; host or cells: CHO cells (Levey et al., 1991)
T2 sequence (P08912 1-532): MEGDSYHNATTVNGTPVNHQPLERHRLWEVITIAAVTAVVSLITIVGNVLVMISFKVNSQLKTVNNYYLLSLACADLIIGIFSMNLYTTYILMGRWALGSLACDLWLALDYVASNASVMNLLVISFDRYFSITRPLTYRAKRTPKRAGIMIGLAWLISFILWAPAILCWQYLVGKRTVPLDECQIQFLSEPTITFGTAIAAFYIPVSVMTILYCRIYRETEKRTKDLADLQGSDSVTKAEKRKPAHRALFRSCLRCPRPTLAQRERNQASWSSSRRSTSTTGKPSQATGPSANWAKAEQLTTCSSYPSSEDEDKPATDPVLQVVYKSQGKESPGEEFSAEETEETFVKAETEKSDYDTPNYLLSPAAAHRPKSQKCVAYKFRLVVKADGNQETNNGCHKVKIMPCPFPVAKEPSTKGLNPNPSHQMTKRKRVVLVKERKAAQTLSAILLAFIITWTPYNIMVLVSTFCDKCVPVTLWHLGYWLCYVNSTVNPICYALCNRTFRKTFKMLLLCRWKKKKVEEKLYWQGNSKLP
As to the kind of experiment: Calcium mobilization assay, CHO cells stably expressing hM5. It is filed as cell-based.
Description: as §1, §2

What is called EC50 is the concentration needed to bring the measured effect to its halfway point.

The structures appear in SMILES notation.

T1 sequence (P20309 whole entry): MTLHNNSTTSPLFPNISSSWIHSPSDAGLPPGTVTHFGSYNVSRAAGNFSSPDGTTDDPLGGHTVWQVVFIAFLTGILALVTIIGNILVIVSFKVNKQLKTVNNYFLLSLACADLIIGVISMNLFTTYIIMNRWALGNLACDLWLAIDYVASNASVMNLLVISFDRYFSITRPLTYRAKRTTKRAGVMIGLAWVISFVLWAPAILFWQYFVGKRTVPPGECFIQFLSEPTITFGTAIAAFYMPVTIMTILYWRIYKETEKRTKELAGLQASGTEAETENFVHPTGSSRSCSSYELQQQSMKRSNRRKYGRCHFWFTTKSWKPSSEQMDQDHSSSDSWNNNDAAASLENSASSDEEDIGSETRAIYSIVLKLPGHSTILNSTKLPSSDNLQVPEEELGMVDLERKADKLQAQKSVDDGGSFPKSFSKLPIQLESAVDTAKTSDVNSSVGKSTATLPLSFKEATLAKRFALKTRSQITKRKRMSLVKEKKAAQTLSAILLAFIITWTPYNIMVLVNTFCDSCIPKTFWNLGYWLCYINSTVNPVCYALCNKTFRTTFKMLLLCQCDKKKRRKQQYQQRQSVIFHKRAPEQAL

Consider `CCOC(=O)N1[C@@H]2CC[C@H]1C[C@H](NCCNC(=O)c1ccccc1)C2` [Example 26, ethyl 3-((3-exo)-(2-benzamidoethyl)amino)-8-azabicyclo[3.2.1]octane-8-carboxylate], for which the EC50 on hM3 receptor and at hM5 receptor was > 10 µM each time.
With `CCOC(=O)N1[C@@H]2CC[C@H]1C[C@@H](NCCNC(=O)c1ccccc1)C2` [Example 27, ethyl 3-((3-endo)-(2-benzamidoethyl)amino)-8-azabicyclo[3.2.1]octane-8-carboxylate], the EC50 on hM3 receptor and on hM5 receptor was ~10 µM each time.
